Data published in US20220409617A1, “Drug Formulations and Methods of Treatment for Metabolic Disorders” (The Regents of the University of California, priority 2019, published 2022).
“Also recorded” adds a separate entry of the source.

Experiments:
[1] = test system: C16:0 ceramide generation (CerS6); experiment: C16:0 ceramide levels in palmitate-treated MEFs (UPLC-MS/MS); assay type: cell-based, mouse
Experimental: Plasma pharmacokinetic analysis of sphingolipid-like compound 893 was performed by Pharmaron Corporation (Beijing, China). C16:0 ceramide levels were quantified in cells using the method described in (T. Kasumov, et al., Anal. Biochem. 401: 154-161, 2010, the disclosure of which is incorporated herein by reference) with minor modifications. Cultured cells were washed twice in PBS and scraped into 250 μL of HPLC grade water and flash frozen until time of analysis. On the day of analysis, samples were thawed, and an aliquot used for protein quantification. For C16:0 ceramide levels in mouse liver, 25 mg of tissue was homogenized in 1 ml of ice-cold PBS using a mechanical probe homogenizer (VWR, Radnor, Pa.), protein levels quantified, and 50 μl of the homogenate diluted with 150 μl HPLC-grade water for C16:0 ceramide analysis. Fifty ng of C17:0 ceramide prepared in ethanol (#22532, Cayman Chemical, Ann Arbor, Mich.) was added into 200 μL of the thawed cell suspension or liver homogenate as an internal standard to control for varying extraction efficiency; 750 μL of an ice-cold 1:2 chloroform/methanol mixture was then added. Samples were sonicated for 30 min and phase separation induced by the addition of 250 μL each of chloroform and HPLC-grade water. Samples were centrifuged at 4° C. for 10 min and the lower lipid phase transferred to a clean tube. The remaining protein and aqueous layers were re-extracted with an additional 500 μL of chloroform. Lipid phases were combined and then dried under vacuum. Dried extract was re-constituted in 100% acetonitrile immediately before analysis. Samples were analyzed by ultra-performance liquid chromatography tandem mass spectrometry (UPLC-MS/MS) using a Waters Micromass Quattro Premier XE equipped with a Waters ACQUITY BEH C4 column (Waters Corp.). Samples were resolved starting at 60% mobile phase A (10 mM ammonium acetate and 0.05% formic acid in water) to 98% mobile phase B (60:40 acetonitrile:isopropanol) over 3 min with a linear gradient, held at 98% B for 1 min, then the column was equilibrated with 60% A for 1 min. The mass spectrometer was operated in positive ion mode with the following parameters: cone voltage 20 V, source temperature 125° C., desolvation temperature 400° C. Ion transition channels for MS/MS were 538→264 for C16:0 ceramide and 552→264 for C17:0 ceramide, both with a dwell time of 285 ms. Standard curves prepared from C16:0 ceramide (#860516, Avanti Polar Lipids, Alabaster, Ala.) dissolved in ethanol were used for quantitation and were linear from 4.1 nM-1,000 nM, with an R^2 of 0.98 or greater.
3T3-L1 cells were maintained in DMEM with 10% FBS and 1% penicillin-streptomycin until induced to differentiate. […]

[2] = test system: mouse embryonic fibroblasts (MEFs); assay type: cell-based; settings: 3 h pre-treatment then palmitate 250 μM 3 h, 893 5 μM, myriocin 10 μM, fumonisin B1 30 μM, NAV-2729 12.5 μM, YM201636 800 nM, celastrol 500 nM
Experimental: Mitochondrial morphology was assessed by examining citrate synthesis expression under a high resolution microscopy. Specifically, the aspect ratio, branch length and roundness of mitochondria was assessed (FIG. 1).
LSL-KrasG12D mouse embryonic fibroblasts (MEFs) with and without Cre-mediated deletion of the STOP cassette were obtained from David Tuveson (Cold Spring Harbor Laboratory, Cold Spring Harbor N.Y., USA) in 2000. p53^flox/flox MEFs were derived in house (2015) from C57BL/6 mice using standard techniques and immortalized by transient expression of Cre recombinase and deletion of p53. MEFs were cultured and maintained in DMEM with 10% FBS and 1% penicillin-streptomycin. […] Stock solution of palmitic acid (ACROS Organics, cat # AC129702500) was prepared at 100 mM in ethanol. Palmitate (250 μM) was conjugated to 1% (w/v) fatty-acid free bovine serum albumin (Sigma, A8806) in DMEM at 37° C. for 20 min. For all immunofluorescence assays, 8,000 MEFs were seeded into 8-chamber slides (Cellvis, cat # C8-1.5H-N) 12-16 h before treatment. Cells were pre-treated with sphingolipid-like compound 893 (5 μM in water), myriocin (10 μM in methanol), fumonisin-B1 (30 μM in DMSO), or celastrol (500 nM in DMSO) for 3 h followed by a 3 h treatment with BSA-conjugated palmitate mixture or BSA alone.

Structure (SMILES): CCCCCCCCc1ccc([C@H]2CCN[C@@H]2CO)cc1.Cl [compound 893]
- Palmitate-induced C16:0 ceramide production ([1]; MEFs, 3 h pre-treatment (893 5 μM, myriocin 10 μM, fumonisin B1 30 μM) then palmitate 250 μM 3 h): failed to block C16:0 ceramide generation; also recorded: without blocking palmitate-induced ceramide production
- CerS6 inhibition ([1]; inferred from C16:0 ceramide generation in palmitate-treated cells): did not inhibit CerS6
- Protection from palmitate-induced mitochondrial fragmentation (aspect ratio, branch length, roundness) [2]: robust protection from both ceramide- and palmitate-induced mitochondrial fragmentation; also recorded: preserved a tubular, branched mitochondrial network in palmitate-treated cells
